Test results: the supplement of paper PMC10307832

Columns and labels:
Test in all cases: relative viability (nuclei count vs DMSO), 5 days (fraction); higher = more cells survive
Metformin + Trametinib = compound: CN(C)C(=N)NC(=N)N [Metformin] + CC(=O)Nc1cccc(-n2c(=O)n(C3CC3)c(=O)c3c(Nc4ccc(I)cc4F)n(C)c(=O)c(C)c32)c1 [Trametinib] (partner 0.02 µM)
How it was run: (§1)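 Relative viability divides the nuclei count in treated wells by that in vehicle wells. Lung cancer cell lines were seeded in 1536-well plates, dosed by pin tool the next day, and fixed and stained after 5 days in one step with final 0.05% Triton X-100, 1% formaldehyde and 1 ug/ml Hoechst. Dosing was a single drug or a fixed anchor-drug dose plus five library-drug doses (not always all listed) in √10 steps, and values are medians of duplicate plates imaged at 4×.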

Metformin + Pictilisib = compound: CN(C)C(=N)NC(=N)N [Metformin] + CS(=O)(=O)N1CCN(Cc2cc3nc(-c4cccc5[nH]ncc45)nc(N4CCOCC4)c3s2)CC1 [Pictilisib] (partner 1 µM)
How it was run: as §1

Metformin + AZD7762 = compound: CN(C)C(=N)NC(=N)N [Metformin] + NC(=O)Nc1cc(-c2cccc(F)c2)sc1C(=O)N[C@H]1CCCNC1 [AZD7762] (partner 0.2 µM)
How it was run: as §1

Apatinib + Phenformin = compound: N#CC1(c2ccc(NC(=O)c3cccnc3NCc3ccncc3)cc2)CCCC1 [Apatinib] + N=C(N)NC(=N)NCCc1ccccc1 [Phenformin] (partner 250 µM)
How it was run: as §1

| Cell Line | relative viability (Metformin + Trametinib; first compound 10 µM) | relative viability (Metformin + Trametinib; first compound 31.62 µM) | relative viability (Metformin + Trametinib; first compound 100 µM) | relative viability (Metformin + Trametinib; first compound 316.23 µM) | relative viability (Metformin + Trametinib; first compound 1000 µM) | relative viability (Metformin + Pictilisib; first compound 10 µM) | relative viability (Metformin + Pictilisib; first compound 31.62 µM) | relative viability (Metformin + Pictilisib; first compound 100 µM) | relative viability (Metformin + Pictilisib; first compound 316.23 µM) | relative viability (Metformin + Pictilisib; first compound 1000 µM) | relative viability (Metformin + AZD7762; first compound 10 µM) | relative viability (Metformin + AZD7762; first compound 31.62 µM) | relative viability (Metformin + AZD7762; first compound 100 µM) | relative viability (Metformin + AZD7762; first compound 316.23 µM) | relative viability (Metformin + AZD7762; first compound 1000 µM) | relative viability (Apatinib + Phenformin; first compound 0.08 µM) | relative viability (Apatinib + Phenformin; first compound 0.253 µM) | relative viability (Apatinib + Phenformin; first compound 0.8 µM) | relative viability (Apatinib + Phenformin; first compound 2.53 µM) | relative viability (Apatinib + Phenformin; first compound 8 µM) |
| --- | --- | --- | --- | --- | --- | --- | --- | --- | --- | --- | --- | --- | --- | --- | --- | --- | --- | --- | --- | --- |
| A-427 | 0.719 | 0.868 | 0.725 | 0.692 | 0.54 | 0.79 | 0.896 | 0.713 | 0.68 | 0.763 | 0.634 | 0.717 | 0.771 | 0.623 | 0.633 | 0.393 | 0.387 | 0.254 | 0.3 | 0.234 |
| LU99A | 0.524 | 0.482 | 0.544 | 0.433 | 0.448 | 0.248 | 0.295 | 0.247 | 0.27 | 0.241 | 0.244 | 0.249 | 0.252 | 0.223 | 0.383 | 0.914 | 1.01 | 0.816 | 0.799 | 0.813 |
| NCI-H727 | 0.404 | 0.369 | 0.41 |  | 0.349 | 0.389 | 0.514 | 0.6 | 0.317 | 0.451 | 0.655 | 0.624 | 0.565 |  | 0.525 | 0.566 | 0.542 | 0.528 | 0.539 | 0.514 |
| EPLC-272H | 0.341 | 0.316 | 0.291 | 0.311 | 0.337 | 0.362 | 0.314 | 0.364 | 0.305 | 0.302 | 0.23 | 0.351 | 0.345 | 0.334 | 0.259 | 0.325 |  | 0.318 | 0.333 | 0.265 |
